According to ChEMBL document CHEMBL3792317, “Novel tetrazoloquinoline-rhodanine conjugates: Highly efficient synthesis and biological evaluation” (Bioorg Med Chem Lett, 2016):
≈ marks a conversion by molar mass, not a printed value. Calls of active or inactive are those of the source. The rule behind the calls is not given here.

What was measured:
[1] = test system: Mycobacterium bovis BCG str. ATCC 35743; test: Antitubercular activity against dormant Mycobacterium bovis BCG ATCC 35743 incubated for 40 mins by XTT Reduction Menadione Assay; type: functional
[2] = test system: Mycobacterium bovis BCG str. ATCC 35743; test: Antitubercular activity against dormant Mycobacterium bovis BCG ATCC 35743 at 30 ug/ml incubated for 40 mins by XTT Reduction Menadione Assay; type: functional
Escherichia coli = test: Antibacterial activity against Escherichia coli after 18 hrs by broth dilution method; type: functional
Cryptococcus neoformans [3] = test: Antifungal activity against Cryptococcus neoformans NCIM 576 after 48 hrs by agar cup plate method; type: functional; details: NCIM 576, 48 h
Bacillus subtilis = test: Antibacterial activity against Bacillus subtilis after 18 hrs by broth dilution method; type: functional
[4] = test system: Mycobacterium tuberculosis; test: Antitubercular activity against Mycobacterium tuberculosis H37Ra ATCC 25177 at 30 ug/ml incubated for 40 mins by XTT Reduction Menadione Assay; type: functional; details: H37Ra ATCC 25177, 40 min, read-out: GI
[5] = test system: Mycobacterium tuberculosis; test: Antitubercular activity against Mycobacterium tuberculosis H37Ra ATCC 25177 at 3 ug/ml incubated for 40 mins by XTT Reduction Menadione Assay; type: functional; details: H37Ra ATCC 25177, 40 min, read-out: GI
[6] = Selectivity index, ratio of GI50 for human A549 cells to MIC for Mycobacterium tuberculosis H37Ra ATCC 25177; type: toxicity, cell-based; details: read-out: Selectivity Index
[7] = test system: Mycobacterium tuberculosis; test: Antitubercular activity against dormant Mycobacterium tuberculosis H37Ra ATCC 25177 incubated for 40 mins by XTT Reduction Menadione Assay; type: functional; details: H37Ra ATCC 25177, 40 min
Aspergillus flavus = test: Antifungal activity against Aspergillus flavus NCIM 539 after 48 hrs by agar cup plate method; type: functional; details: NCIM 539, 48 h
[8] = test system: Mycobacterium tuberculosis; test: Antitubercular activity against Mycobacterium tuberculosis H37Ra ATCC 25177 at 10 ug/ml incubated for 40 mins by XTT Reduction Menadione Assay; type: functional; details: H37Ra ATCC 25177, 40 min, read-out: GI
Fusarium oxysporum = test: Antifungal activity against Fusarium oxysporum NCIM 1332 after 48 hrs by agar cup plate method; type: functional; details: NCIM 1332, 48 h
[9] = Selectivity index, ratio of GI50 for human A549 cells to MIC for Mycobacterium bovis BCG ATCC 35743; type: toxicity, cell-based; details: read-out: Selectivity Index
[10] = test system: Mycobacterium bovis BCG str. ATCC 35743; test: Antitubercular activity against active Mycobacterium bovis BCG ATCC 35743 incubated for 40 mins by XTT Reduction Menadione Assay; type: functional
[11] = test system: Mycobacterium tuberculosis; test: Antitubercular activity against active Mycobacterium tuberculosis H37Ra ATCC 25177 incubated for 40 mins by XTT Reduction Menadione Assay; type: functional; details: H37Ra ATCC 25177, 40 min
[12] = test system: Mycobacterium bovis BCG str. ATCC 35743; test: Antitubercular activity against dormant Mycobacterium bovis BCG ATCC 35743 at 3 ug/ml incubated for 40 mins by XTT Reduction Menadione Assay; type: functional
Staphylococcus aureus = test: Antibacterial activity against Staphylococcus aureus after 18 hrs by broth dilution method; type: functional
[13] = Cytotoxicity against human PANC1 cells after 48 hrs by MTT assay; type: cell-based, PANC-1; details: for GI50 at 48 h: PANC1 cells; for GI90: panc-1, 48 h
HeLa = test: (§1) Cytotoxicity against human HeLa cells after 48 hrs by MTT assay; type: cell-based; details: hela, 48 h
[14] = as §1; type: cell-based; details: HeLa cells
[15] = test system: Mycobacterium bovis BCG str. ATCC 35743; test: Antitubercular activity against dormant Mycobacterium bovis BCG ATCC 35743 at 10 ug/ml incubated for 40 mins by XTT Reduction Menadione Assay; type: functional
[16] = Selectivity index, ratio of GI50 for human HeLa cells to MIC for Mycobacterium bovis BCG ATCC 35743; type: toxicity, cell-based; details: read-out: Selectivity Index
[17] = Selectivity index, ratio of GI50 for human THP1 cells to MIC for Mycobacterium bovis BCG ATCC 35743; type: toxicity, cell-based, THP-1; details: read-out: Selectivity Index
[18] = Selectivity index, ratio of GI50 for human PANC1 cells to MIC for Mycobacterium bovis BCG ATCC 35743; type: toxicity, cell-based, PANC-1; details: read-out: Selectivity Index
[19] = test system: Mycobacterium tuberculosis; test: Antitubercular activity against Mycobacterium tuberculosis H37Ra ATCC 25177 incubated for 40 mins by XTT Reduction Menadione Assay; type: functional; details: H37Ra ATCC 25177, 40 min
[20] = Selectivity index, ratio of GI50 for human PANC1 cells to MIC for Mycobacterium tuberculosis H37Ra ATCC 25177; type: toxicity, cell-based, PANC-1; details: read-out: Selectivity Index
[21] = Selectivity index, ratio of GI50 for human HeLa cells to MIC for Mycobacterium tuberculosis H37Ra ATCC 25177; type: toxicity, cell-based; details: read-out: Selectivity Index
Aspergillus niger = test: Antifungal activity against Aspergillus niger NCIM 1196 after 48 hrs by agar cup plate method; type: functional; details: NCIM 1196, 48 h
Pseudomonas fluorescens = test: Antibacterial activity against Pseudomonas fluorescens after 18 hrs by broth dilution method; type: functional
[22] = Cytotoxicity against human THP1 cells after 48 hrs by MTT assay; type: cell-based, THP-1; details: for GI50 at 48 h: THP1 cells; for GI90: thp-1, 48 h
[23] = Selectivity index, ratio of GI50 for human THP1 cells to MIC for Mycobacterium tuberculosis H37Ra ATCC 25177; type: toxicity, cell-based, THP-1; details: read-out: Selectivity Index
Candida albicans = test: Antifungal activity against Candida albicans NCIM 3471 after 48 hrs by agar cup plate method; type: functional; details: NCIM 3471, 48 h
[24] = Antitubercular activity against Mycobacterium bovis BCG ATCC 35743 incubated for 40 mins by XTT Reduction Menadione Assay; type: functional, Mycobacterium bovis BCG str. ATCC 35743; details: Mycobacterium tuberculosis variant bovis BCG, ATCC 35743, 40 min
A549 = test: (§2) Cytotoxicity against human A549 cells after 48 hrs by MTT assay; type: cell-based; details: a549, 48 h
[25] = as §2; type: cell-based; details: A549 cells
Cryptococcus neoformans [26] = test: Antifungal activity against Cryptococcus neoformans NCIM 576 up to 200 ug/ml after 48 hrs by agar cup plate method; type: functional, organism-based

## Cc1ccc2cc(/C=C3\SC(=S)NC3=O)c3nnnn3c2c1
[1]
  IC90: 2.01 µg/mL (≈ 6.14 µM)
[2]
  growth inhibition (GI): 97.8%
Escherichia coli
  MIC: 208 µg/mL (≈ 636 µM)
Cryptococcus neoformans [3]
  MIC: 100 µg/mL (≈ 305 µM)
Bacillus subtilis
  MIC: 188 µg/mL (≈ 574 µM)
[4]
  inhibition of growth at 30 µg/mL: 98%
[5]
  inhibition of growth at 3 µg/mL: 82.9%
[6]
  selectivity ratio: 22.2
[7]
  IC90: 4.5 µg/mL (≈ 13.7 µM)
Aspergillus flavus
  MIC: 125 µg/mL (≈ 382 µM)
[8]
  inhibition of growth at 10 µg/mL: 99.7%
Fusarium oxysporum
  MIC: 150 µg/mL (≈ 458 µM)
[9]
  selectivity ratio: 49.8
[10]
  IC90: 2.25 µg/mL (≈ 6.87 µM)
[11]
  IC90: 5.5 µg/mL (≈ 16.8 µM)
[12]
  growth inhibition (GI): 100%
Staphylococcus aureus
  MIC: 205 µg/mL (≈ 626 µM)
[13]
  GI50 at 48 h: > 100 µg/mL
  GI90: > 100 µg/mL
HeLa
  GI90: > 100 µg/mL
[14]
  GI50 at 48 h: > 100 µg/mL
[15]
  growth inhibition (GI): 100%
[16]
  selectivity ratio: 49.8
[17]
  selectivity ratio: 49.8
[18]
  selectivity ratio: 49.8
[19]
  MIC: 4.5 µg/mL (≈ 13.7 µM)
[20]
  selectivity ratio: 22.2
[21]
  selectivity ratio: 22.2
Aspergillus niger
  MIC: 100 µg/mL (≈ 305 µM)
Pseudomonas fluorescens
  MIC: 211 µg/mL (≈ 643 µM)
[22]
  GI50 at 48 h: > 100 µg/mL
  GI90: > 100 µg/mL
[23]
  selectivity ratio: 22.2
Candida albicans
  MIC: 150 µg/mL (≈ 458 µM)
[24]
  MIC: 2.01 µg/mL (≈ 6.14 µM)
A549
  GI90: > 100 µg/mL
[25]
  GI50 at 48 h: > 100 µg/mL

## Cc1ccc2cc(/C=C3\SC(=S)N(CC(=O)O)C3=O)c3nnnn3c2c1
[1]
  IC90: 24.2 µg/mL (≈ 62.7 µM)
[2]
  growth inhibition (GI): 50.6%
Cryptococcus neoformans [3]
  MIC: 150 µg/mL (≈ 389 µM)
[4]
  inhibition of growth at 30 µg/mL: 65%
[5]
  inhibition of growth at 3 µg/mL: 31.7%
[7]
  IC90: 159 µg/mL (≈ 413 µM)
Aspergillus flavus
  MIC: 50 µg/mL (≈ 130 µM)
[8]
  inhibition of growth at 10 µg/mL: 49.2%
Fusarium oxysporum
  MIC: 100 µg/mL (≈ 259 µM)
[11]
  IC90: > 250 µg/mL
[12]
  growth inhibition (GI): -4.5%
[13]
  GI50 at 48 h: > 100 µg/mL
  GI90: > 100 µg/mL
HeLa
  GI90: > 100 µg/mL
[14]
  GI50 at 48 h: > 100 µg/mL
[15]
  growth inhibition (GI): 19.2%
[19]
  MIC: 159 µg/mL (≈ 413 µM)
Aspergillus niger
  MIC: 150 µg/mL (≈ 389 µM)
[22]
  GI50 at 48 h: > 100 µg/mL
  GI90: > 100 µg/mL
Candida albicans
  MIC: 75 µg/mL (≈ 195 µM)
[24]
  MIC: 24.2 µg/mL (≈ 62.7 µM)
A549
  GI90: > 100 µg/mL
[25]
  GI50 at 48 h: > 100 µg/mL

## COc1ccc2cc(/C=C3\SC(=S)NC3=O)c3nnnn3c2c1
[2]
  growth inhibition (GI): 3.63%
Escherichia coli
  MIC: 102 µg/mL (≈ 298 µM)
Bacillus subtilis
  MIC: 246 µg/mL (≈ 716 µM)
[4]
  inhibition of growth at 30 µg/mL: 14.1%
[5]
  inhibition of growth at 3 µg/mL: 1.97%
Aspergillus flavus
  MIC: 100 µg/mL (≈ 291 µM)
[8]
  inhibition of growth at 10 µg/mL: 15.6%
Fusarium oxysporum
  MIC: 100 µg/mL (≈ 291 µM)
[12]
  growth inhibition (GI): -3.47%
Staphylococcus aureus
  MIC: 247 µg/mL (≈ 721 µM)
Cryptococcus neoformans [26]
  MIC: inactive
[15]
  growth inhibition (GI): -1.87%
[19]
  MIC: > 250 µg/mL
Aspergillus niger
  MIC: 25 µg/mL (≈ 72.8 µM)
Pseudomonas fluorescens
  MIC: 157 µg/mL (≈ 457 µM)
Candida albicans
  MIC: 150 µg/mL (≈ 437 µM)
[24]
  MIC: > 250 µg/mL

## CO[C@H]1/C=C/O[C@@]2(C)Oc3c(C)c(O)c4c(O)c(c(/C=N/N5CCN(C)CC5)c(O)c4c3C2=O)NC(=O)/C(C)=C\C=C\[C@H](C)[C@H](O)[C@@H](C)[C@@H](O)[C@@H](C)[C@H](OC(C)=O)[C@@H]1C [RIFAMPIN]
[1]
  IC90: 0.89 µg/mL (≈ 1.08 µM)
[6]
  selectivity ratio: > 139
[7]
  IC90: 0.72 µg/mL (≈ 0.875 µM)
[9]
  selectivity ratio: > 112
[10]
  IC90: 0.061 µg/mL (≈ 0.0741 µM)
[11]
  IC90: 0.05 µg/mL (≈ 0.0608 µM)
[13]
  GI50 at 48 h: > 100 µg/mL
[14]
  GI50 at 48 h: > 100 µg/mL
[16]
  selectivity ratio: > 112
[17]
  selectivity ratio: > 112
[18]
  selectivity ratio: > 112
[19]
  MIC: 0.72 µg/mL (≈ 0.875 µM)
[20]
  selectivity ratio: > 139
[21]
  selectivity ratio: > 139
[22]
  GI50 at 48 h: > 100 µg/mL
[23]
  selectivity ratio: > 139
[24]
  MIC: 0.89 µg/mL (≈ 1.08 µM)
[25]
  GI50 at 48 h: > 100 µg/mL
